Test system: not listed separately
Assay: Inhibition of hypoxia-induced HIF1alpha/P300-CBP interaction mediated gene transcriptional activity in human HeLa cells co-transfected with luciferase reporter plasmid containing HRE and pRL-CMV vector incubated for 12 hrs under hypoxic condition by HRE-dependent dual luciferase reporter gene assay
Type: cell-based
Settings: not given
In the case of CC(C)CCN1CCCCN(CCCc2ccccc2)C(=O)CN2CCC[C@H]2C(=O)N[C@@H](CC(C)C)C1=O, the IC50 is reported as 9.5 µM. CC(C)CCC(=O)N1CCCCN(CCC(C)C)C(=O)[C@H](CC(C)C)NC(=O)[C@H](C)NC(=O)C1 showed an IC50 greater than 33 µM. Work on CC(C)CCN1C/C=C/CN(CCCc2ccccc2)C(=O)CN[C@@H](C)C(=O)N[C@@H](CC(C)C)C1=O yielded an IC50 of 16.3 µM. With CC(C)CCN1C/C=C/CN(CCCc2ccccc2)C(=O)CN2CCC[C@H]2C(=O)N[C@@H](CC(C)C)C1=O the IC50 was 13.8 µM. Work on CC(C)CCN1CCCCCN(CCCc2ccccc2)C(=O)CN[C@@H](C)C(=O)N[C@@H](CC(C)C)C1=O yielded an IC50 of 8.7 µM. Compound CC(C)CCN1CCCCN(CCCc2ccccc2)C(=O)CN[C@@H](C)C(=O)N[C@@H](CC(C)C)C1=O has an IC50 of 9.96 µM. With CC(C)CCN1C/C=C/CCN(CCCc2ccccc2)C(=O)CN[C@@H](C)C(=O)N[C@@H](CC(C)C)C1=O the IC50 was 13.7 µM. In the case of CC(C)CCC(=O)N1C/C=C/CN(CCC(C)C)C(=O)[C@H](CC(C)C)NC(=O)[C@H](C)NC(=O)C1, the IC50 is reported as greater than 33 µM. Compound OCc1ccc(-c2nn(Cc3ccccc3)c3ccccc23)o1 has an IC50 of 1 µM.

Test system: HeLa
Assay: Antiproliferative activity against human HeLa cells assessed as reduction in cell proliferation measured after 48 hrs by MTT assay
Type: functional, cell-based
Settings: not given
CC(C)CCN1CCCCN(CCCc2ccccc2)C(=O)CN2CCC[C@H]2C(=O)N[C@@H](CC(C)C)C1=O showed an IC50 of 66.4 µM. For CC(C)CCC(=O)N1CCCCN(CCC(C)C)C(=O)[C@H](CC(C)C)NC(=O)[C@H](C)NC(=O)C1, the IC50 was greater than 100 µM. In the case of CC(C)CCN1C/C=C/CN(CCCc2ccccc2)C(=O)CN[C@@H](C)C(=O)N[C@@H](CC(C)C)C1=O, the IC50 is reported as 97.1 µM. CC(C)CCN1C/C=C/CN(CCCc2ccccc2)C(=O)CN2CCC[C@H]2C(=O)N[C@@H](CC(C)C)C1=O showed an IC50 of 54 µM. CC(C)CCN1CCCCCN(CCCc2ccccc2)C(=O)CN[C@@H](C)C(=O)N[C@@H](CC(C)C)C1=O gave an IC50 of 55.5 µM. For CC(C)CCN1CCCCN(CCCc2ccccc2)C(=O)CN[C@@H](C)C(=O)N[C@@H](CC(C)C)C1=O, the IC50 was 58.9 µM. CC(C)CCN1C/C=C/CCN(CCCc2ccccc2)C(=O)CN[C@@H](C)C(=O)N[C@@H](CC(C)C)C1=O showed an IC50 of 71.2 µM. Work on CC(C)CCC(=O)N1C/C=C/CN(CCC(C)C)C(=O)[C@H](CC(C)C)NC(=O)[C@H](C)NC(=O)C1 yielded an IC50 greater than 100 µM.

Test system: HCT-116
Assay: Antiproliferative activity against human HCT-116 cells assessed as reduction in cell proliferation measured after 2 days by MTT assay
Type: functional, cell-based
Settings: HCT-116, 48 h
CC(C)CCN1CCCCN(CCCc2ccccc2)C(=O)CN2CCC[C@H]2C(=O)N[C@@H](CC(C)C)C1=O gave an IC50 of 12.3 µM. CC(C)CCC(=O)N1CCCCN(CCC(C)C)C(=O)[C@H](CC(C)C)NC(=O)[C@H](C)NC(=O)C1 gave an IC50 of 83.8 µM. CC(C)CCN1C/C=C/CN(CCCc2ccccc2)C(=O)CN[C@@H](C)C(=O)N[C@@H](CC(C)C)C1=O showed an IC50 of 25.1 µM. Work on CC(C)CCN1C/C=C/CN(CCCc2ccccc2)C(=O)CN2CCC[C@H]2C(=O)N[C@@H](CC(C)C)C1=O yielded an IC50 of 17.1 µM. Work on CC(C)CCN1CCCCCN(CCCc2ccccc2)C(=O)CN[C@@H](C)C(=O)N[C@@H](CC(C)C)C1=O yielded an IC50 of 34.3 µM. With CC(C)CCN1CCCCN(CCCc2ccccc2)C(=O)CN[C@@H](C)C(=O)N[C@@H](CC(C)C)C1=O the IC50 was 34.8 µM. Work on CC(C)CCN1C/C=C/CCN(CCCc2ccccc2)C(=O)CN[C@@H](C)C(=O)N[C@@H](CC(C)C)C1=O yielded an IC50 of 33.3 µM. Compound CC(C)CCC(=O)N1C/C=C/CN(CCC(C)C)C(=O)[C@H](CC(C)C)NC(=O)[C@H](C)NC(=O)C1 has an IC50 greater than 90 µM.

Test system: DMS-114
Assay: Antiproliferative activity against human DMS-114 cells assessed as reduction in cell proliferation measured after 2 days by MTT assay
Type: functional, cell-based
Settings: DMS-114, 48 h
CC(C)CCN1CCCCN(CCCc2ccccc2)C(=O)CN2CCC[C@H]2C(=O)N[C@@H](CC(C)C)C1=O showed an IC50 of 17.3 µM. CC(C)CCC(=O)N1CCCCN(CCC(C)C)C(=O)[C@H](CC(C)C)NC(=O)[C@H](C)NC(=O)C1 gave an IC50 greater than 90 µM. In the case of CC(C)CCN1C/C=C/CN(CCCc2ccccc2)C(=O)CN[C@@H](C)C(=O)N[C@@H](CC(C)C)C1=O, the IC50 is reported as 32.2 µM. CC(C)CCN1C/C=C/CN(CCCc2ccccc2)C(=O)CN2CCC[C@H]2C(=O)N[C@@H](CC(C)C)C1=O showed an IC50 of 20.9 µM. Compound CC(C)CCN1CCCCCN(CCCc2ccccc2)C(=O)CN[C@@H](C)C(=O)N[C@@H](CC(C)C)C1=O has an IC50 of 49 µM. With CC(C)CCN1CCCCN(CCCc2ccccc2)C(=O)CN[C@@H](C)C(=O)N[C@@H](CC(C)C)C1=O the IC50 was 45 µM. In the case of CC(C)CCN1C/C=C/CCN(CCCc2ccccc2)C(=O)CN[C@@H](C)C(=O)N[C@@H](CC(C)C)C1=O, the IC50 is reported as 48.9 µM. CC(C)CCC(=O)N1C/C=C/CN(CCC(C)C)C(=O)[C@H](CC(C)C)NC(=O)[C@H](C)NC(=O)C1 gave an IC50 greater than 90 µM.

Test system: HeLa
Assay: Cytotoxicity against human HeLa cells co-transfected with luciferase reporter plasmid containing HRE and pRL-CMV vector incubated for 12 hrs under hypoxic condition by MTT assay
Type: cell-based
Settings: not given
With CC(C)CCN1CCCCN(CCCc2ccccc2)C(=O)CN2CCC[C@H]2C(=O)N[C@@H](CC(C)C)C1=O the IC50 was greater than 50 µM. CC(C)CCC(=O)N1CCCCN(CCC(C)C)C(=O)[C@H](CC(C)C)NC(=O)[C@H](C)NC(=O)C1 gave an IC50 greater than 50 µM. CC(C)CCN1C/C=C/CN(CCCc2ccccc2)C(=O)CN[C@@H](C)C(=O)N[C@@H](CC(C)C)C1=O showed an IC50 greater than 50 µM. Work on CC(C)CCN1C/C=C/CN(CCCc2ccccc2)C(=O)CN2CCC[C@H]2C(=O)N[C@@H](CC(C)C)C1=O yielded an IC50 greater than 50 µM. In the case of CC(C)CCN1CCCCCN(CCCc2ccccc2)C(=O)CN[C@@H](C)C(=O)N[C@@H](CC(C)C)C1=O, the IC50 is reported as greater than 50 µM. Work on CC(C)CCN1CCCCN(CCCc2ccccc2)C(=O)CN[C@@H](C)C(=O)N[C@@H](CC(C)C)C1=O yielded an IC50 greater than 50 µM. For CC(C)CCN1C/C=C/CCN(CCCc2ccccc2)C(=O)CN[C@@H](C)C(=O)N[C@@H](CC(C)C)C1=O, the IC50 was greater than 50 µM. CC(C)CCC(=O)N1C/C=C/CN(CCC(C)C)C(=O)[C@H](CC(C)C)NC(=O)[C@H](C)NC(=O)C1 gave an IC50 greater than 50 µM.
